Measurements as given in PMC5768801, “The PII signaling protein from red algae represents an evolutionary link between cyanobacterial and Chloroplastida PII proteins” (Scientific Reports, 2018).
“And” between values parts separate entries of the source, which are not always exact repeats. Equal values may be shown once. “Also recorded” adds a separate entry of the source. Read-outs that look alike come from different tables or passages of the source.

Columns and labels:
SyPII [1] = biological target: T1, SyPII (Synechococcus elongatus, UniProt P0A3F4); settings: cited from earlier work
T1 construct: Strep-tag; made in house

CrPII = assay: ITC binding of small effector molecules to green algal CrPII; parameters: species or system Chlamydomonas reinhardtii
Protocol: (§1) To gain additional insights into the ligand binding properties of PpPII in comparison to cyanobacterial and chloroplastid PII proteins, isothermal titration calorimetry (ITC) experiments were performed using highly purified Strep-tagged or His-tagged recombinant PpPII, SyPII, CrPII, and PhyscoPII proteins (Supplementary Fig. S1) with different protein/ligand/ concentrations to determine the best fitting conditions of the binding model. The titration experiments were repeated with different protein preparations to confirm the reproducibility of the results. The raw isothermal data were fitted into one-binding site as well as three-sequential binding sites to define the best fitting model. Fitting using a one binding site model states an average Kd value for all available binding sites and the mean of the stoichiometry of bound ligands.
(§2) The ITC experiments were done using a VP-ITC microcalorimeter (MicroCal, LCC). All details for determination of binding constants for small effector molecules using ITC are fully described in the supplementary information. Heat isotherms of the dilution of the ligand in the cell buffer were collected in a blank run for each experiment in the absence of protein. The binding isotherms were calculated from received data and fitted to one-site and three-sequential binding sites models using the MicroCal ORIGIN software (Northampton) as described. All titrations were performed in duplicates with different purification batches of recombinant PII proteins. The association binding constant (Ka) was generated from the software by de-convolution and curve fitting. For calculation of dissociation constant (Kd), the Ka value was inversed.
(§3) Supplementary Information […]
(§4) Determination of Binding Constants for Small Effector Molecules using Isothermal […]
(§5) The binding of the small effector molecules to the recombinant PII proteins was tested using isothermal titration calarmity (ITC); VP-ITC microcalorimeter (MicroCal). All titrations were performed on 20°C using […] injection syringe with injection 6 µl or 10 µl of the tested ligands for 45 or 29 times, respectively into the cell (1.4 ml) with continuous stirring at 155 rpm. All tested ligands were high grade, prepared freshly in the same buffer of the protein and purchased from Sigma-Aldrich. Heat isotherms for the dilution of the ligand in the cell buffer were collected in a blank run in the absence of protein. The received calorimetric data were analyzed using MicroCal Origin software and fitted into one-site and three-sequential binding sites models, as indicated by the manufacture for calculation of binding isotherms9. For data reproducibility, the titrations were performed in duplicates with different purification batches of recombinant PII proteins. The association binding constant (Ka) was generated from the software by de-convolution and curve fitting. For calculation of dissociation constant (Kd), the Ka value was inversed. […]

PpPII = PpPII (Porphyra purpurea, UniProt P51254); assay: ITC binding of small effector molecules to red algal PpPII
Protocol: as §1, §2, §3, §4
The binding of the small effector molecules to the recombinant PII proteins was tested using isothermal titration calarmity (ITC); VP-ITC microcalorimeter (MicroCal). All titrations were performed on 20°C using […] injection syringe with injection 6 µl or 10 µl of the tested ligands for 45 or 29 times, respectively into the cell (1.4 ml) with continuous stirring at 155 rpm. All tested ligands were high grade, prepared freshly in the same buffer of the protein and purchased from Sigma-Aldrich. Heat isotherms for the dilution of the ligand in the cell buffer were collected in a blank run in the absence of protein. The received calorimetric data were analyzed using MicroCal Origin software and fitted into one-site and three-sequential binding sites models, as indicated by the manufacture for calculation of binding isotherms9. For data reproducibility, the titrations were performed in duplicates with different purification batches of recombinant PII proteins. The association binding constant (Ka) was generated from the software by de-convolution and curve fitting. For calculation of dissociation constant (Kd), the Ka value was inversed.
For determination the binding isotherms of red algal PpPII protein, a buffer system composed of […]
used. For determination ATP and ADP binding isotherms upon the binding to PpPII protein, His- […]
against 2 mM ATP or 2 mM ADP. For determination of ATP and ADP binding isotherms in […]
concentration) was titrated against 0.5 mM of ATP or 1 mM ADP, respectively. However, for […]
of 1 mM of ATP or 1 mM ADP. […]

SyPII [2] = biological target: T1, SyPII; assay: ITC binding of small effector molecules to cyanobacterial SyPII; parameters: species or system Synechococcus elongatus PCC 7942
Protocol: as §1, §2, §3, §4, §5
For determination the binding isotherms of cyanobacterial SyPII protein, a strep-tagged recombinant protein (20 µM trimeric concentration) was overexpressed and used as described previously9, 15, in a buffer composed of 10 mM Hepes-NaOH, 50 mM KCl, 50 mM NaCl, and 1

PpPII, sequence (P51254 whole entry): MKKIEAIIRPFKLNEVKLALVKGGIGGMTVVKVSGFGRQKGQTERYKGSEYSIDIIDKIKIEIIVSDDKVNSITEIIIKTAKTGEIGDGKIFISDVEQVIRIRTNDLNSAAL
T1 sequence (P0A3F4 whole entry): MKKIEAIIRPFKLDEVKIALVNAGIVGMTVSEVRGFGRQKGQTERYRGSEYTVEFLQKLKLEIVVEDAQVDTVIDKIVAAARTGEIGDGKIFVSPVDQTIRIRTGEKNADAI

Question: What does the source list for `Nc1ncnc2c1ncn2[C@@H]1O[C@H](COP(=O)(O)OP(=O)(O)O)[C@@H](O)[C@H]1O` [ADP]?
Answer: Kd (SyPII [1]; read-out: Kd1 (three-sites binding model), titrant alone, given in parentheses for comparison): 10.6 µM; Kd (SyPII [1]; read-out: Kd2 (three-sites binding model), titrant alone, given in parentheses for comparison): 19.3 µM; Kd (SyPII [1]; read-out: Kd3 (three-sites binding model), titrant alone, given in parentheses for comparison): 133 µM; Average Kd (one-site binding model) (CrPII; in presence 2-OG (2 mM)): no ADP binding; Kd1 (three-sites binding model) (CrPII; in presence 2-OG (2 mM)): No binding; Kd2 (three-sites binding model) (CrPII; in presence 2-OG (2 mM)): No binding; Kd3 (three-sites binding model) (CrPII; in presence 2-OG (2 mM)): No binding; Average Kd (one-site binding model) (CrPII; titrant alone): unable to notice any binding; also recorded: No binding; Kd1 (three-sites binding model) (CrPII; titrant alone): No binding; Kd2 (three-sites binding model) (CrPII; titrant alone): No binding; Kd3 (three-sites binding model) (CrPII; titrant alone): No binding; N, number of calculated binding sites (one-site binding model) (PpPII; in presence 2-OG (1 mM)): 2.7; Kd (PpPII; in presence 2-OG (1 mM), read-out: Average Kd (one-site binding model)): 10.8 ± 2.8 µM; Kd (PpPII; in presence 2-OG (1 mM), read-out: Kd1 (three-sites binding model)): 10.3 ± 10 µM; Kd (PpPII; in presence 2-OG (1 mM), read-out: Kd2 (three-sites binding model)): 43.6 ± 4.7 µM; Kd (PpPII; in presence 2-OG (1 mM), read-out: Kd3 (three-sites binding model)): 125.9 ± 0.9 µM; N, number of calculated binding sites (one-site binding model) (PpPII; titrant alone, per PII trimer): 2.7; Kd (PpPII; titrant alone, read-out: Average Kd (one-site binding model)): ~7.2 µM and 7.2 µM; Kd (PpPII; titrant alone, read-out: Kd1 (three-sites binding model)): 3.4 ± 0.5 µM; Kd (PpPII; titrant alone, read-out: Kd2 (three-sites binding model)): 15.2 ± 0.7 µM; Kd (PpPII; titrant alone, read-out: Kd3 (three-sites binding model)): 132 ± 2.7 µM; ADP concentration at which the enthalpy reached a maximum (biphasic titration curve) (SyPII [2]; ADP titrated in the presence of 1 mM 2-OG): 80.0 ± 7.1 µM; Kd (SyPII [2]; Average Kd (one-site binding model), in presence 2-OG (1 mM) and 150 µM ADP): 45.8 ± 44 µM; Kd (SyPII [2]; Kd1 (three-sites binding model), in presence 2-OG (1 mM) and 150 µM ADP): 10.7 ± 1.9 µM; Kd (SyPII [2]; Kd2 (three-sites binding model), in presence 2-OG (1 mM) and 150 µM ADP): 26.4 ± 4.2 µM; Kd (SyPII [2]; Kd3 (three-sites binding model), in presence 2-OG (1 mM) and 150 µM ADP): 101 ± 103 µM; N, number of calculated binding sites (one-site binding model) (SyPII [2]; in presence 2-OG (1 mM) and 150 µM ADP): 4.0
